Laboratory results reported in paper PMC6149853, “Species-Specific Inactivation of Triosephosphate Isomerase from Trypanosoma brucei: Kinetic and Molecular Dynamics Studies” (Molecules : A Journal of Synthetic Chemistry and Natural …, 2017).
pIC50: −log10 of the molar value.

Experiments:
[1] = target: T1, HsTIM (human triosephosphate isomerase) (Homo sapiens, UniProt P60174); experiment: residual activity after […] h preincubation; alpha-GPDH coupled assay, NADH at […] nm; type: biochemical; settings: 5 µg/mL enzyme preincubated with compound 2 h at 36 °C, 10% DMSO, 10 mM EDTA, pH 7.4; assay 1 mM GAP, 25 °C
T1 construct: gene TPI1

[2] = target: T2, TbTIM (triosephosphate isomerase from Trypanosoma brucei) (Trypanosoma brucei, UniProt P04789); experiment: as above; type: biochemical; settings: read-out: I50
T2 construct: homodimer; 250 residues per monomer
T2 sequence (P04789 whole entry): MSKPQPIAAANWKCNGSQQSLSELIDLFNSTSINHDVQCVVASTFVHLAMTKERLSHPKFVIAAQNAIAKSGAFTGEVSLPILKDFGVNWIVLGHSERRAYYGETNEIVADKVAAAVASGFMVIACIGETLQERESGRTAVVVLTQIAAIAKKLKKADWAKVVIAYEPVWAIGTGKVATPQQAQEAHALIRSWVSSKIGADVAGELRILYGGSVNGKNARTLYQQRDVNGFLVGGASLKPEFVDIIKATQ

T1 sequence (P60174 2-249): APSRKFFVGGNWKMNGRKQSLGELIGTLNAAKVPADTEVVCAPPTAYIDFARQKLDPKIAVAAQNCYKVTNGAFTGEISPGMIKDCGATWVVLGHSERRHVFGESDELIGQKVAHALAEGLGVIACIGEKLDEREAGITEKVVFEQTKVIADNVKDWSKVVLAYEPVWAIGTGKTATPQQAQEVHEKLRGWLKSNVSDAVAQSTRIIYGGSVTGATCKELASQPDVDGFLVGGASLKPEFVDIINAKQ

COC(=O)Nc1nc2cc(Oc3cccc4ccccc34)ccc2[nH]1 [compound 1, Methyl(5-(naphthalen-1-yloxy)-1H-benzimidazol-2-yl)carbamate]
% inactivation at 100 μM [1]: 12% | pIC50 [2]: 4.08

COC(=O)Nc1nc2cc(Oc3ccc(Cl)c4ccccc34)ccc2[nH]1 [compound 2, Methyl(5-((4-chloronaphthalen-1-yl)oxy)-1H-benzimidazol-2-yl)carbamate]
% inactivation at 100 μM [1]: 23% | pIC50 [2]: 4.09

CSc1nc2ccc(C(=O)N/N=C/c3ccc([N+](=O)[O-])o3)cc2[nH]1 [compound 3, (E)-2-(Methylthio)-N′-((5-nitrofuran-2-yl)methylene)-1H-benzimidazole-5-carbohydrazide]
pIC50 [2]: 4.14
